Where a SMILES comes first, the peptide text is derived from it. The star is where a group is joined. Cbz = O=C(OCc1ccccc1)*

Broadly, the IC50 is the concentration at which inhibition is half-maximal.

The subject of one test is POLG. Conditions: cited from earlier work; for inhibition of POLG activity in vitro: extent of inhibition varies widely.
Test [1] concerns POLB mRNA in MSH2 deficient and proficient cells. In words: POLB mRNA by qRT-PCR after H2O2. Type of test: cell-based, human. The settings on record: 100 μM H202, RNA isolated after 15 mins. Here is the method: Quantification of RNA expression was measured by real time RT-PCR. Total RNA was extracted from cells with Trizol (Invitrogen) according to manufacturer's instructions. Total RNA from patient biopsies was purified from 10 μm sections using the High Pure RNA Paraffin Kit (Roche Diagnostic Ltd). cDNA was synthesized using Omniscript Reverse Transcriptase System for RT-PCR (Qiagen) with oligo dT as per manufacturer's instructions. Assay-on-Demand primer/probe sets were purchased from Applied Biosystems (Foster City, Calif.). Real-Time qPCR was performed on the […] Fast Real-Time PCR System (Applied Biosystems), with endogenous control β-Actin. Standard curves were calculated for all reactions with serial dilutions of control Hec59+chr2 cells to calculate reaction efficiency. Gene expression was calculated relative to expression of β-Actin endogenous control, and adjusted relative to expression in control Hec59+chr2 cells. Samples were quantified in triplicate.

The subject of test [2] is OGG1 expression in HeLa cells. In words: Western blot for OGG1 expression. In kind it is cell-based, human. The settings on record: POLB silenced cells; 50 μM MG132, lysates 18 hours later. On the procedure:
(§1) Cell pellets were lysed in 20 mmol/L Tris (pH 8), 200 mmol/L NaCl, 1 mmol/L EDTA, 0.5% (v/v) NP40, 10% (v/v) glycerol, and protease inhibitors. Immunoprecipitations were performed by incubating Protein G beads (Sigma), 1-2 mg of precleared cell lysate and anti-POLB antibody (ab3181, Abcam; dilution 1:100) overnight at 4° C. Beads were subsequently washed three times in cold lysis buffer, after which 2× loading buffer was added and the samples were boiled for 5 min before SDS-PAGE. For western blotting, lysates were electrophoresed on Novex precast gels (Invitrogen) and immunoblotted using the following antibodies: anti-MSH2 (Ab-1, Calbiochem), anti-POLB (ab3181, Abcam), anti-MLH1 (ab9144, Abcam), anti-POLG (Novus), anti-PCNA (SC7907, Santa-Cruz), anti-Cytochrome C (Pharmagen) anti-OGG1 (NB100-106, Novus biologicals), anti-CHIP (ab39559, Abcam) and anti-β-tubulin, (T4026, Sigma). This was followed by incubation with anti-IgG-horseradish peroxidase and chemiluminescent detection (SuperSignal West Pico Chemiluminescent Substrate, Pierce). Immunoblotting for (1-tubulin was used as a loading control.
On the technique in general: In western blotting, separated proteins are transferred to a membrane and probed.

Test [3] deals with Hec59 and Hec59+chr2 cells. In words: High-throughput compound inhibitor screen, CellTitre Glo viability. Type of test: cell-based, human. The settings on record: library of 1120 compounds; viability after six days. On the procedure:
(§2) Compound libraries were purchased from Prestwick Chemicals (Saffron Walden, Essex, UK). Validation experiments were carried out with Methotrexate (Biomol International L.P.) and Menadione and Partenolide (Prestwick chemicals). Cells were plated in 96-well plates. After 12 hr incubation, cells were exposed to compound or equimolar DMSO and re-treated every 48 hrs. Cell viability was measured six days later using the CellTitre Glo assay (Promega) according to the manufacturer's instructions. Validation of hit compounds was performed by clonogenic assays. Exponentially growing cells were seeded at various densities in six-well plates. Cells were treated with increasing concentrations of the compound. Cell medium was replaced every four days. After ten to fourteen days, cells were fixed in methanol, stained with crystal violet, and counted. The plating efficiencies were calculated as the number of colonies divided by the number of cells plated for each compound treatment. The surviving fraction (SF) for a given sample was calculated as the plating efficiencies for each compound treated cells divided by the plating efficiencies of DMSO treated cells.

The test system of test [4] is Hec59+chr2 cells (MSH2 proficient). In words: 8-OHdG ELISA on isolated DNA. Type of test: cell-based, human. Conditions: compound treatment for three days. Here is the method:
(§3) Genomic DNA was extracted using the Qiamp DNA isolation kit (Qiagen) and digested with nuclease P1. Mitochondrial and nuclear DNA was extracted using the mitochondrial DNA isolation kit (ab65321, Abcam). A commercially available ELISA kit from Cell Biolabs was used to determine levels of 8-OHdG in isolated DNA. The assays were performed according to the manufacturer's instructions. The 8-OHdG standard (0.078-20 ng/ml) or 10 μg DNA from siRNA transfected cells was incubated with a 8-OHdG monoclonal antibody in a microtiter plate precoated with 8-OHdG.
(§4) Addition of […] to replicate samples was followed by measurement of absorbance at 450 nm. Standard curves were calculated for all reactions with serial dilutions of 8-OHdG standard to calculate reaction efficiency. Samples were assayed in triplicate.

The test system of test [5] is Hec59 cells (MSH2 deficient). Kind of test: 8-OHdG ELISA on isolated DNA. In kind it is cell-based, human. Conditions: compound treatment for three days. On the procedure: as §3, §4
(In an ELISA, binding on a coated surface is turned into a signal by an enzyme label.)

Test [6] deals with reactive oxygen species (ROS). Conditions: VK3 at 30 μM; leading to apoptosis; cited from earlier work.
The test system of test [7] is POLβ expression in Hec59 and Hec59+chr2 cells. In words: Western blot for POLβ expression. Type of test: cell-based, human. Conditions: 72 hours after treatment with methotrexate. On the procedure:
as §1
Transfected cell pellets were lysed in 20 mmol/L Tris (pH 8), 200 mmol/L NaCl, 1 mmol/LEDTA, 0.5% (v/v) NP40, 10% (v/v) glycerol, and protease inhibitors. […]

In the next test the test system is Hec59+chr2 cells. Kind of test: Clonogenic survival with methotrexate after MSH2 siRNA. In kind it is cell-based, human. Conditions: cells transfected with MSH2 siRNA vs siControl; continuous exposure 14 days. Here is the method: (§5) For clonogenic assays, exponentially growing cells were seeded at various densities in six-well plates. Cells were transfected with siRNA as before. Cell medium was replaced every four days. After ten to fourteen days, cells were fixed in methanol, stained with crystal violet, and counted. The plating efficiencies were calculated as the number of colonies divided by the number of cells plated for each siRNA transfection. The surviving fraction (SF) for a given sample was calculated as the plating efficiencies for each siRNA transfection divided by the plating efficiencies of siControl siRNA transfected cells. All transfections were carried out in triplicate.
(§6) Compound libraries were purchased from Prestwick Chemicals (Saffron Walden, Essex, UK). […] Cell viability was measured six days later using the CellTitre Glo assay (Promega) according to the manufacturer's instructions. […] After ten to fourteen days, cells were fixed in methanol, stained with crystal violet, and counted. The plating efficiencies were calculated as the number of colonies divided by the number of cells plated for each compound treatment. The surviving fraction (SF) for a given sample was calculated as the plating efficiencies for each compound treated cells divided by the plating efficiencies of DMSO treated cells.

The test system of the next test is HeLa cells. The test is described as above. The settings on record: cells transfected with MSH2 siRNA vs siControl; continuous exposure 14 days. Type of test: cell-based, human. On the procedure:
as §5, §6

Test [8] has as its system Hec59 and Hec59+chr2 cells. In words: Clonogenic assay with compounds. The settings on record: folic acid added in concert with methotrexate; Hec59 MSH2 deficient cells; 14 days. Type of test: cell-based, human. Here is the method: as §2
A further test concerns the target POLB (Rattus norvegicus, UniProt P06766). Conditions: read-out: IC50 as POLB inhibitor; cited from earlier work.

Take `CC(Cn1cnc2c(N)ncnc21)OCP(=O)(O)OP(=O)(O)OP(=O)(O)O` (stereo in doubt) [tenofovir-DP]: the “inhibition of POLG activity in vitro” value with POLG is listed as “inhibit POLG activity in vitro”.

In the case of `OO` [H202], the “POLB mRNA levels” value in test [1] was “induced”.

As for `Nc1ccn([C@@H]2CS[C@H](COP(=O)(O)OP(=O)(O)OP(=O)(O)O)O2)c(=O)n1` [Lamivudine-TP], the “inhibition of POLG activity in vitro” value in the test with POLG is given as “inhibit POLG activity in vitro”.

For `CC(C)C[C@@H](C=O)NC(=O)[C@H](CC(C)C)NC(=O)[C@H](CC(C)C)NC(=O)OCc1ccccc1` [MG132] (Cbz-Leu-Leu-Leu-aldehyde), in test [2], the OGG1 expression result was “restored the expression of OGG1”.

In the case of `CC1=CC(=O)c2ccccc2C1=O` [Menadione, 2-methylnaphthalene-1,4-dione], the “selectivity for MSH2 deficient cells in high-throughput screen” value in test [3] was “show selectivity for MSH2 deficient cells”. In the test with POLG (VK3 at 30 μM), the “inhibition of POLG” value was “more than 80%”. The 8-OHdG accumulation entry in [4] is “did not increase”; in test [5], “increased significantly”. For the same compound, the “reactive oxygen species (ROS)” value in test [6] is “significant increase”.

On to `CN(Cc1cnc2nc(N)nc(N)c2n1)c1ccc(C(=O)N[C@@H](CCC(=O)O)C(=O)O)cc1` [Methotrexate, (S)-2-(4-(((2,4-diaminopteridin-6-yl)methyl)methylamino)benzamido)pentanedioic acid], for which, in test [3], the “selectivity for MSH2 deficient cells in high-throughput screen” value was “show selectivity for MSH2 deficient cells”. Also, the figures for the 8-OHdG accumulation entry in [4] and in test [5] were “did not increase” and “increased significantly”, respectively. In addition, the POLβ expression entry in test [7] is “reduction of POLβ expression”. The “synthetic lethality with methotrexate (survival)” value in the test with Hec59+chr2 cells and in the test on HeLa cells was “synthetically lethal” throughout.

Regarding `Nc1ncnc2c1ncn2CCOCP(=O)(O)OP(=O)(O)OP(=O)(O)O` [adefovir-diphosphate], the “inhibition of POLG activity in vitro” value in the test with POLG was “inhibit POLG activity in vitro”.

As to `Nc1nc2ncc(CNc3ccc(C(=O)N[C@@H](CCC(=O)O)C(=O)O)cc3)nc2c(=O)[nH]1` [folic acid], the “rescue of methotrexate lethality” value in [8] is “in large part rescues the lethal phenotype”.

Regarding `C/C(=C/CC[C@H](C)[C@@H]1CC[C@]2(C)C3=CC[C@H]4C(C)(C)C(=O)CC[C@]4(C)[C@H]3CC[C@@]12C)C(=O)O` [masticadienonic acid], on POLB, the IC50 was 8 µM.

For `Nc1ccn([C@H]2CC[C@@H](COP(=O)(O)OP(=O)(O)OP(=O)(O)O)O2)c(=O)n1` [zalcitabine-TP], the “inhibition of POLG activity in vitro” value in the test on POLG is on record as “inhibit POLG activity in vitro”.

`Cc1cn([C@H]2C[C@H](N=[N+]=[N-])[C@@H](COP(=O)(O)OP(=O)(O)OP(=O)(O)O)O2)c(=O)[nH]c1=O` [zidovudine-TP]: in the test on POLG, the “inhibition of POLG activity in vitro” value was “inhibit POLG activity in vitro”.

The values are drawn from patent US20110212101A1, “MATERIALS AND METHODS FOR EXPLOITING SYNTHETIC LETHALITY IN MISMATCH REPAIR-DEFICIENT CANCERS” (priority 2007, published 2011).
